One series concerns fish. The series is described as follows: Toxicity to fish compared with other pyrethroids. The text has this:
This invention is the culmination of the above findings.

The next series relates to pests. The series is described as follows: Pesticidal effectiveness, overall. To be noted: in vivo. The text has this: The pesticidal activity of the compounds according to this invention against green rice leafhoppers (Nephotettix cincticeps Uhler), rice stem borers (Chilo suppressalis Walker), tobacco cutworms (Prodenia litura […]) and houseflies (Musca domestica), as examples of the pests against which the same compounds are considered effective, the acute toxicity data on the same compounds as determined in rat by the oral route and the median tolerance limit (TLm) data on the same compounds as determined in killifish (Orizias latipes) and guppies (Lebistes reticulatus) are shown in Table 1 alongside the corresponding values for various control compounds. The pesticidal effects were determined by the procedures set forth in Test Examples 1 through 4, while the acute toxicity to rat was determined by the procedure set forth in Test Example 9 and the toxicity to fish was determined by the procedures set forth in Test Examples 6 and 7, all those Examples appearing hereinafter.

Series [1] deals with tobacco cutworm (Prodenia litura). The series is described as follows: Utility Example-5: spray on soy bean leaves, tobacco cutworm larvae. It is filed as in vivo. Particulars: 48 h, 2 days. Here is the method: An acetone solution of one of the test compounds as mentioned in Table 13 and Tween-20 (the same surfactant as mentioned hereinbefore) was prepared. This acetone solution was diluted with water to prepare a solution containing the test compound in a predetermined concentration. Leaves of soy bean in pots were sprayed with the above diluted solution at the rate of 20 ml/pot and, after one day, ten 3-instar larvae of tobacco cutworm (Prodenia litura) were released on the leaves. The pots were kept in a constant-temperature chamber at 25° C.

For the next series, the system named is rat. The series is described as follows: Acute toxicity test in rat by the oral route. Particulars: Table 1, rat, 10080 min. In kind it is in vivo. From the text: Acute toxicity test in rat by the oral route
Series [2] relates to guppies (Lebistes reticulatus). Kind of series: Fish toxicity test with guppies. To be noted: Table 1; 48 hrs. In kind it is in vivo. The procedure, abridged:
(§1)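 Ten female guppies, 3–4 months old, held at 20 °C in water containing surfactant and test compound added in acetone solution. TLm (median tolerance limit, ppm) determined.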

The nature of series [3]: Fish toxicity test with guppies. Particulars: guppy, water, guppies, 20° C., read-out: TLm (48 hrs.). In kind it is in vivo, Lebistes reticulatus. The procedure, abridged: as §1
A further series relates to carp (Cyprinus carpio L). Kind of series: Fish toxicity test with carp. In kind it is in vivo. To be noted: 48 hrs., 21±1° C.; 2880 min. A digest of the protocol: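 Compound in acetone with Tween-20 dispersed in 50 L aerated water at a set concentration; five carp (about 6 g, 6 cm) exposed at 21±1° C. Deaths checked after 48 h, and TLm (median tolerance limit, ppm) determined.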

Series [4] relates to killifish (Orizias latipes). The series is described as follows: Fish toxicity test with killifish. In kind it is in vivo. Particulars: Table 1; 48 hrs. The procedure, abridged:
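Test compound dispensed from acetone solution into water at set concentrations; ten aerated-water killifish (~0.25 g, ~2.5 cm) held at 25±1° C. Deaths scored after 48 hours; TLm (median tolerance limit, ppm) determined.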

The next series relates to crop plants. Kind of series: Phytotoxicity test. Particulars: 2,000 ppm solution on leaves, after 10 days. It is filed as in vivo. From the text:
A 2,000 ppm solution of each of the cis- and trans-isomers and a 50:50 mixture of cis- and trans-isomers of Compound (1) and of Compound (2), and a 50:50 mixture of the cis- and trans-isomers of Compound (B) and Compound (E) was applied to the leaves of the following crop plants.
After 10 days, the crop plants were examined for their phytotoxicities.

By mortality is commonly meant the share of the test organisms that died. A low value points to more survivors.

Consider `C#CC(OC(=O)[C@@H]1[C@@H](C=C(Cl)Cl)C1(C)C)c1cccc(Oc2ccc(Cl)cc2)c1` (relative stereo) [Compound (2) trans-], for which the “toxicity to fish in words” value with fish is recorded as “by far low in toxicity to fish”. Besides, the “pesticidal effectiveness in words” value in the series on pests was “outstanding in pesticidal activity against various pests”.

As for `C#CC(OC(=O)C1C(C=C(Cl)Cl)C1(C)C)c1cccc(Oc2ccc(Cl)cc2)c1` (stereo not drawn) [Compound (2) cis-/trans- = 50:50, 3-(4-chlorophenoxy)-α-ethynylbenzyl 2,2-dimethyl-3-(2,2-dichlorovinyl)cyclopropanecarboxylate], in series [1], the mortality at 6.5 ppm worked out at 100% and the mortality at 13 ppm was 100%. Further, the “Acute oral toxicity to rat LD50” value in the series with rat is more than 3000 mg/kg. For the same molecule, the “Toxicity to fish TLm, guppy” value in [2] is reported as more than 10 ppm. Moreover, the LC50 at 48 h in series [3] was more than 10 µg/mL. Besides, the “TLm, Carp (48 hrs.)” value in the series on carp (Cyprinus carpio L) was found to be 2.8 ppm. Also, the “Toxicity to fish TLm, killifish” value in series [4] is on record as more than 10 ppm.

In the case of `CC1(C)C(C=C(Cl)Cl)C1C(=O)OCc1cccc(Oc2ccccc2)c1` (centres unmarked) [Compound (B), Permethrin], the phytotoxicity entry in the series on crop plants was “did not cause any injury to each one of the crop plants”. In series [1], this molecule showed a mortality at 6.5 ppm of 60% and a mortality at 13 ppm of 90%. The “Toxicity to fish TLm, guppy” value in series [2] is recorded as less than 0.5 ppm. For the same molecule, the LC50 at 48 h in [3] was less than 0.5 µg/mL.

The record behind these values is patent US4389412A, “Substituted cyclopropanecarboxylic acid esters and pesticidal compositions containing the same as active ingredient” (priority 1979, dated 1983).
